Measurements published in ChEMBL document CHEMBL1157012, “Neural computational prediction of oral drug absorption based on CODES 2D descriptors” (Eur J Med Chem, 2010).

Test: Human intestinal absorption in po dosed human
Conditions: in vivo

Row | Structure (SMILES) | Fa [%]
1 | C[C@@H]1O[C@@H](O[C@H]2C[C@@H](O)[C@]3(CO)[C@H]4[C@H](O)C[C@]5(C)[C@@H](C6=CC(=O)OC6)CC[C@]5(O)[C@@H]4CC[C@]3(O)C2)[C@H](O)[C@H](O)[C@H]1O [OUABAIN] | 1
2 | O=c1[nH]c2ccccc2n1CCCN1CCN(C(c2ccccc2)c2ccccc2)CC1 [OXATOMIDE] | 100
3 | C=CCOc1ccccc1OCC(O)CNC(C)C (stereo unspecified) [OXPRENOLOL] | 95
4 | COc1cccc(C(=O)CCN[C@@H](C)[C@H](O)c2ccccc2)c1 [OXYFEDRINE] | 84
5 | CC(C)NCC(O)COc1ccc(CCNC(=O)NC(C)C)cc1 (stereo unspecified) [PAFENOLOL] | 29
6 | CCn1cc(C(=O)O)c(=O)c2cc(F)c(N3CCN(C)CC3)cc21 [PEFLOXACIN] | 100
7 | CC1(C)S[C@@H]2[C@H](NC(=O)Cc3ccccc3)C(=O)N2[C@H]1C(=O)O [PENICILLIN G] | 30
8 | CC1(C)S[C@@H]2[C@H](NC(=O)COc3ccccc3)C(=O)N2[C@H]1C(=O)O [PENICILLIN V] | 59
9 | CCN(CC)CCC1(c2ccccc2)CCC(=O)NC1=O (stereo unspecified) [PHENGLUTARIMIDE] | 100
10 | O=C1NC(=O)C(c2ccccc2)(c2ccccc2)N1 [PHENYTOIN] | 90
11 | CC(C)NCC(O)COc1cccc2[nH]ccc12 (stereo unspecified) [PINDOLOL] | 87
12 | CC(C)(C)NCC(O)c1ccc(O)c(CO)n1 (stereo unspecified) [PIRBUTEROL] | 60
13 | CN1C(C(=O)Nc2ccccn2)=C(O)c2ccccc2S1(=O)=O [PIROXICAM] | 100
14 | CCc1[nH]c(=O)[nH]c1C(=O)c1ccncc1 [PIROXIMONE] | 80
15 | CC[C@H](C)C(=O)O[C@H]1C[C@H](O)C=C2C=C[C@H](C)[C@H](CC[C@@H](O)C[C@@H](O)CC(=O)O)[C@H]21 [PRAVASTATIN] | 34
16 | O=C(C1CCCCC1)N1CC(=O)N2CCc3ccccc3C2C1 (stereo unspecified) [PRAZIQUANTEL] | 100
17 | COc1cc2nc(N3CCN(C(=O)c4ccco4)CC3)nc(N)c2cc1OC [PRAZOSIN] | 86
18 | C[C@]12C=CC(=O)C=C1CC[C@@H]1[C@@H]2[C@@H](O)C[C@@]2(C)[C@H]1CC[C@]2(O)C(=O)CO [PREDNISOLONE] | 99
19 | CCCOC(C(=O)OC1CCN(C)CC1)(c1ccccc1)c1ccccc1 [PROPIVERINE] | 84

Row | Structure (SMILES) | Fa [%]
20 | CCCc1cc(=O)[nH]c(=S)[nH]1 [PROPYLTHIOURACIL] | 76
21 | C=C[C@H]1C[N@@]2CC[C@H]1C[C@@H]2[C@@H](O)c1ccnc2ccc(OC)cc12 [QUINIDINE] | 81
22 | Cn1c(=O)c2c(ncn2CCCNCC(O)c2cc(O)cc(O)c2)n(C)c1=O (stereo unspecified) [REPROTEROL] | 60
23 | NC(=O)c1ncn([C@@H]2O[C@H](CO)[C@@H](O)[C@H]2O)n1 [RIBAVIRIN] | 33
24 | Oc1ccc(C(O)C2CCCCN2)cc1O (stereo unspecified) [RIMITEROL] | 48
25 | O=C1NS(=O)(=O)c2ccccc21 [SACCHARIN] | 88
26 | O=C(O)c1ccccc1O [SALICYLIC ACID] | 100
27 | O=c1[nH]c(=O)n([C@@H]2O[C@H](CO)[C@@H](O)[C@@H]2O)cc1/C=C/Br [SORIVUDINE] | 82
28 | CC(C)NCC(O)c1ccc(NS(C)(=O)=O)cc1 (stereo unspecified) [SOTALOL] | 95
29 | CC(=O)S[C@@H]1CC2=CC(=O)CC[C@]2(C)[C@H]2CC[C@@]3(C)[C@@H](CC[C@@]34CCC(=O)O4)[C@H]12 [SPIRONOLACTONE] | 73
30 | Cc1cn([C@H]2C=C[C@@H](CO)O2)c(=O)[nH]c1=O [STAVUDINE] | 100
31 | CN1C(C(=O)Nc2nccs2)=C(O)c2ccccc2S1(=O)=O [SUDOXICAM] | 100
32 | O=C(O)c1cc(/N=N/c2ccc(S(=O)(=O)Nc3ccccn3)cc2)ccc1O [SULFASALAZINE] | 59
33 | CCN1CCCC1CNC(=O)c1cc(S(N)(=O)=O)ccc1OC (stereo unspecified) [SULPIRIDE] | 44
34 | CCN1CCCC1CNC(=O)c1cc(S(=O)(=O)CC)ccc1OC (stereo unspecified) [SULTOPRIDE] | 89
35 | NC(=O)N1C(=O)/C(=C(\O)c2cccs2)c2cc(Cl)ccc21 [TENIDAP] | 89
36 | CN1C(C(=O)Nc2ccccn2)=C(O)c2sccc2S1(=O)=O [TENOXICAM] | 100
37 | COc1cc2nc(N3CCN(C(=O)C4CCCO4)CC3)nc(N)c2cc1OC (stereo unspecified) [TERAZOSIN] | 90
38 | CC(C)(C)NCC(O)c1cc(O)cc(O)c1 (stereo unspecified) [TERBUTALINE] | 62

Row | Structure (SMILES) | Fa [%]
39 | C[C@]12CC[C@H]3[C@@H](CCC4=CC(=O)CC[C@@]43C)[C@@H]1CC[C@@H]2O [TESTOSTERONE] | 100
40 | Cn1c(=O)c2[nH]cnc2n(C)c1=O.O [THEOPHYLLINE] | 100
41 | Cc1ccsc1C(=CCCN1CCC[C@@H](C(=O)O)C1)c1sccc1C [TIAGABINE] | 90
42 | CC(C)(C)NC[C@H](O)COc1nsnc1N1CCOCC1 [TIMOLOL] | 95
43 | COc1cc(C)c([S+](C)[O-])cc1OC (stereo unspecified) [TOLMESOXIDE] | 98
44 | CC1(C)O[C@@H]2[C@@H](CO[C@@]3(COS(N)(=O)=O)OC(C)(C)O[C@@H]23)O1 [TOPIRAMATE] | 86
45 | CN(C)CCOc1ccc(/C(=C(/CCCl)c2ccccc2)c2ccccc2)cc1 [TOREMIFENE] | 100
46 | Cc1cccc(Nc2ccncc2S(=O)(=O)NC(=O)NC(C)C)c1 [TORSEMIDE] | 96
47 | COc1cccc(C2(O)CCCCC2CN(C)C)c1 (stereo unspecified) [TRAMADOL] | 90
48 | COc1cc(Cc2cnc(N)nc2N)cc(OC)c1OC [TRIMETHOPRIM] | 97
49 | N[C@@H]1[C@H]2CN(c3nc4c(cc3F)c(=O)c(C(=O)O)cn4-c3ccc(F)cc3F)C[C@@H]12 [TROVAFLOXACIN] | 88
50 | CCCC(CCC)C(=O)[O-].[Na+] [VALPROATE SODIUM] | 100
51 | COc1ccc(C(CN(C)C)C2(O)CCCCC2)cc1 (stereo unspecified) [VENLAFAXINE] | 97
52 | C=CC(N)CCC(=O)O (stereo unspecified) [VIGABATRIN] | 58
53 | CCOc1ccccc1OCC1CNCCO1 (stereo unspecified) [VILOXAZINE] | 98
54 | CC(C(=O)O)c1ccc(C2CCCC(=NO)C2)cc1 (stereo unspecified) [XIMOPROFEN] | 98
55 | Cc1cn([C@H]2C[C@H](N=[N+]=[N-])[C@@H](CO)O2)c(=O)[nH]c1=O [ZIDOVUDINE] | 100
56 | O=C1Cc2cc(CCN3CCN(c4nsc5ccccc45)CC3)c(Cl)cc2N1 [ZIPRASIDONE] | 60
